Laboratory results from patent US4309559A, “Sulphonamides useful as pesticides” (FBC Limited, priority 1977, dated 1982).

Columns and labels:
Type in all cases: in vivo
[1] = tested on: Wild Oat (Avena fatua); assay: Pre-emergence soil surface spray, wild oat; conditions: soil surface spray 2.8 kg/ha, 21 days, 0=no effect, 100=complete kill
Source text: (§1) Seeds of the plant species listed below were sown in John Innes I potting compost in aluminium pans, 19 cm long×9.5 cm wide×5.0 cm high, one species per pan. The soil surface was then sprayed with a compound listed below, formulated as a solution in 1:1 by volume aqueous acetone except for the compound of Example 44 which was formulated as an aqueous suspension containing 1000 parts per million of the wetting agent Lissapol NX (nonylphenol/ethylene oxide condensate). Each compound was applied at a rate of 2.8 kg of active ingredient per hectare in 450 liters of spray liquid per hectare. The pans were then watered, and placed in a controlled environment room (22° C., relative humidity 65-85%, 14 hours per day artificial illumination at 17,000 lux) for 21 days. The plants were then visually assessed for any growth regulatory or herbicidal effects. All differences from an untreated control were scored on a scale from 0-100, where 0 signifies no effect and 100 signifies complete kill.

[2] = tested on: Barley (Hordeum vulgare); assay: Pre-emergence soil surface spray, barley; conditions: soil surface spray 2.8 kg/ha, 21 days, 0=no effect, 100=complete kill
Source text: as §1

[3] = tested on: Maize (Zea mays); assay: Soil incorporation (attaclay/sand dust), growth regulatory or herbicidal effects, maize; conditions: 504 h, soil incorporation 26 ppm, 21 days, 0=no effect, 100=complete kill, read-out: growth regulatory or herbicidal effect score
Procedure, shortened: (§2)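 Compounds formulated as attaclay/sand dust, incorporated into John Innes I compost at 26 ppm w/v (≈11.2 kg/ha) or 130 ppm w/v (≈56 kg/ha); seeds sown in treated soil, held 21 days at 22° C, 65-85% RH, 14 h light at 13,000 lux. Visual scoring versus untreated control, 0 (no effect) to 100 (complete kill).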

[4] = tested on: Ryegrass (Lolium perenne); assay: Soil incorporation (attaclay/sand dust), growth regulatory or herbicidal effects, ryegrass; conditions: 504 h, soil incorporation 26 ppm, 21 days, 0=no effect, 100=complete kill, read-out: growth regulatory or herbicidal effect score
Procedure, shortened: as §2

[5] = tested on: Peas (Pisum sativum); assay: Soil incorporation (attaclay/sand dust), growth regulatory or herbicidal effects, peas; conditions: Lathyrus oleraceus, 504 h, soil incorporation 26 ppm, 21 days, 0=no effect, 100=complete kill, read-out: growth regulatory or herbicidal effect score
Procedure, shortened: as §2

[6] = tested on: Rice (Orysae sotiva); assay: Pre-emergence soil surface spray, rice; conditions: soil surface spray 2.8 kg/ha, 21 days, 0=no effect, 100=complete kill
Source text: as §1

[7] = tested on: Crabgrass (Digitaria sanguinalis); assay: Pre-emergence soil surface spray, crabgrass; conditions: soil surface spray 2.8 kg/ha, 21 days, 0=no effect, 100=complete kill
Source text: as §1

[8] = tested on: Linseed (Linum usitatissimum); assay: Soil incorporation (attaclay/sand dust), growth regulatory or herbicidal effects, linseed; conditions: 504 h, soil incorporation 26 ppm, 21 days, 0=no effect, 100=complete kill, read-out: growth regulatory or herbicidal effect score
Procedure, shortened: as §2

[9] = tested on: Barnyardgrass (Echinochloa crus-galli); assay: Post-emergence foliar spray of monocotyledons, barnyardgrass; conditions: foliar spray 2.8 kg/ha, 14 days, 0=no effect, 100=complete kill
Description: (§3) Seeds of the monocotyledon species listed below were sown in anodised aluminium pans, 19 cm long×9.5 cm wide×5.0 cm deep, containing John Innes I potting compost. They were then watered and placed in a controlled environment room (22° C.; 65-85% relative humidity; 14 hours per day artificial illumination at 17,000 lux). 14 days after sowing, the seedlings were given a foliar spray of the compound of Example 44, formulated as an aqueous suspension together with 2000 ppm of the wetting agent Lissapol NX. The dosage rate was adjusted to be 2.8 kg active ingredient in 450 liters per hectare. After a further 14 days in the controlled environment room, the plants were visually assessed for any growth regulatory or herbicidal effect. All differences from an untreated control were scored on a scale from 0-100 where 0 signifies no effect and 100 signifies complete kill.
(§4) The compounds listed below were tested according to the procedure of Example 66 but including rice (Oryza sativa) as an additional test species.

[10] = tested on: Wheat (Triticum aestivum); assay: Pre-emergence soil surface spray, wheat; conditions: soil surface spray 2.8 kg/ha, 21 days, 0=no effect, 100=complete kill
Source text: as §1

[11] = tested on: Barnyardgrass (Echinochloa crus-galli); assay: Pre-emergence soil surface spray, barnyardgrass; conditions: soil surface spray 2.8 kg/ha, 21 days, 0=no effect, 100=complete kill
Source text: as §1

[12] = tested on: Mustard (Sinapis alba); assay: Soil incorporation (attaclay/sand dust), growth regulatory or herbicidal effects, mustard; conditions: 504 h, soil incorporation 26 ppm, 21 days, 0=no effect, 100=complete kill, read-out: growth regulatory or herbicidal effect score
Procedure, shortened: as §2

[13] = tested on: Oats (Avena sativa); assay: Soil incorporation (attaclay/sand dust), growth regulatory or herbicidal effects, oats; conditions: 504 h, soil incorporation 26 ppm, 21 days, 0=no effect, 100=complete kill, read-out: growth regulatory or herbicidal effect score
Procedure, shortened: as §2

[14] = tested on: Barley (Hordeum vulgare); assay: Post-emergence foliar spray of monocotyledons, barley; conditions: foliar spray 2.8 kg/ha, 14 days, 0=no effect, 100=complete kill
Description: as §3, §4

[15] = tested on: Blackgrass (Alopecurus myosuroides); assay: Pre-emergence soil surface spray, blackgrass; conditions: soil surface spray 2.8 kg/ha, 21 days, 0=no effect, 100=complete kill
Source text: as §1

[16] = tested on: Wheat (Triticum aestivum); assay: Post-emergence foliar spray of monocotyledons, wheat; conditions: foliar spray 2.8 kg/ha, 14 days, 0=no effect, 100=complete kill
Description: as §3, §4

## CS(=O)(=O)N(CC#N)c1ccc(Cl)c(Cl)c1 [Example 44, N-cyanomethyl-3,4-dichloro-methanesulphonanilide]
[1]
  growth regulatory or herbicidal effect score: 0
[2]
  growth regulatory or herbicidal effect score: 0
[3]
  plant injury at 26 µg/mL: 5%
[4]
  pest or weed control at 26 µg/mL: 5%
[5]
  pest or weed control at 26 µg/mL: 0%
[6]
  growth regulatory or herbicidal effect score: 0
[7]
  growth regulatory or herbicidal effect score: 0
[8]
  pest or weed control at 26 µg/mL: 20%
[9]
  growth regulatory or herbicidal effect score: 100
[10]
  growth regulatory or herbicidal effect score: 0
[11]
  growth regulatory or herbicidal effect score: 80
[12]
  pest or weed control at 26 µg/mL: 40%
[13]
  plant injury at 26 µg/mL: 60%
[14]
  growth regulatory or herbicidal effect score: 0
[15]
  growth regulatory or herbicidal effect score: 0
[16]
  growth regulatory or herbicidal effect score: 0
